Source: ChEMBL document CHEMBL5696439 (Cancer Res, 2010)
Calls of active or inactive are those of the source. The calls are words filed in the database; no cut-off is given here.

What was measured:
[1] = target: Serine/threonine-protein kinase SMG1 (Homo sapiens, UniProt Q96Q15); assay: Inhibition of human SMG1 using glutathione S-transferase-p53 as substrate by DELFIA
[2] = target: G protein-coupled receptor kinase 3 (Homo sapiens) (UniProt P35626); assay: Inhibition of recombinant human full-length GST-tagged ADRBK2 expressed in insect cells at 2 uM using Ser/Thr 16 as substrate measured after 1 hr by Z'-LYTE assay relative to control; details: Insect cell
Chain of G protein-coupled receptor kinase 3 (Homo sapiens) (P35626 whole entry): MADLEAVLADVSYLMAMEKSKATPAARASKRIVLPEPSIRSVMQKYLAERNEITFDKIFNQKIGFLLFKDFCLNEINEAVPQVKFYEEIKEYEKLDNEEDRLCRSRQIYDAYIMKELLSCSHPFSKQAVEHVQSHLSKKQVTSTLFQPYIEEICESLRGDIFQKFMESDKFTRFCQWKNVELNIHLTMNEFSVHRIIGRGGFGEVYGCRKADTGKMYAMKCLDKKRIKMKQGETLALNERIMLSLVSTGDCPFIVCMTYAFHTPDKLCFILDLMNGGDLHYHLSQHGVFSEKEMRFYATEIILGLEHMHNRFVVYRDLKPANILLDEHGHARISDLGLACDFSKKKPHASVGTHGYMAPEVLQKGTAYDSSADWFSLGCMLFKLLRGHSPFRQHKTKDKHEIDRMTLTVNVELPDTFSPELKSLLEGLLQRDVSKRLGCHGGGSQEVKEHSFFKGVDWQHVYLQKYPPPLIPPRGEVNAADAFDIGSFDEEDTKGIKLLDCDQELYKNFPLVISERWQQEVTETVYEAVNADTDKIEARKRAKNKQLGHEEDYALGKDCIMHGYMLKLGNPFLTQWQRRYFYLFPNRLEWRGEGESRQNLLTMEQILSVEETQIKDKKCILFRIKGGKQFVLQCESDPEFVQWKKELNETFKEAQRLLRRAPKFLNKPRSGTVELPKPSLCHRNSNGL

[3] = target: RAC-gamma serine/threonine-protein kinase (Homo sapiens) (UniProt Q9Y243); assay: Inhibition of recombinant human full-length His-tagged AKT3 expressed in insect cells at 2 uM using Ser/Thr 06 as substrate measured after 1 hr by Z'-LYTE assay relative to control; details: Insect cell
[4] = target: Calcium/calmodulin-dependent protein kinase type II subunit alpha (Homo sapiens) (UniProt Q9UQM7); assay: Inhibition of recombinant human full-length His-tagged CAMK2A expressed in insect cells at 2 uM using Ser/Thr 04 as substrate measured after 1 hr by Z'-LYTE assay relative to control; details: Insect cell
[5] = target: Serine/threonine-protein kinase Chk1 (Homo sapiens) (UniProt O14757); assay: Inhibition of recombinant human full-length His-tagged CHEK1 expressed in baculovirus expression system at 2 uM using Ser/Thr 19 as substrate measured after 1 hr by Z'-LYTE assay relative to control
Chain of Serine/threonine-protein kinase Chk1 (Homo sapiens) (O14757 whole entry, the tested form may be a part): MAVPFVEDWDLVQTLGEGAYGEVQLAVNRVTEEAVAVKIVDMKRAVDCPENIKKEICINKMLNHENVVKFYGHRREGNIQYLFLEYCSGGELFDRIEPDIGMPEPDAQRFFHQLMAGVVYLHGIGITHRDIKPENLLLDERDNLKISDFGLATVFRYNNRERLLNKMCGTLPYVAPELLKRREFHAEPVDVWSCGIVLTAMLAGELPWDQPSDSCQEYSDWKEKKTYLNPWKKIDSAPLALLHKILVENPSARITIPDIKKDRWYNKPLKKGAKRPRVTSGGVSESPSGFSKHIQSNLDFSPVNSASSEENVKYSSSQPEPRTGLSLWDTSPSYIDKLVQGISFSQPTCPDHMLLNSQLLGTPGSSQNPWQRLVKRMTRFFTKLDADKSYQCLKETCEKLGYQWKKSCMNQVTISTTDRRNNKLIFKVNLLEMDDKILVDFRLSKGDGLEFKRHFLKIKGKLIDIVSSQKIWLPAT

[6] = target: Dual specificity protein kinase CLK2 (Homo sapiens) (UniProt P49760); assay: Inhibition of recombinant human GST-tagged CLK2 (137-498 residues) expressed in insect cells at 2 uM using Ser/Thr 06 as substrate measured after 1 hr by Z'-LYTE assay relative to control; details: Insect cell
Chain of Dual specificity protein kinase CLK2 (Homo sapiens) (P49760 whole entry, looked up, the tested form may be a part, canonical isoform): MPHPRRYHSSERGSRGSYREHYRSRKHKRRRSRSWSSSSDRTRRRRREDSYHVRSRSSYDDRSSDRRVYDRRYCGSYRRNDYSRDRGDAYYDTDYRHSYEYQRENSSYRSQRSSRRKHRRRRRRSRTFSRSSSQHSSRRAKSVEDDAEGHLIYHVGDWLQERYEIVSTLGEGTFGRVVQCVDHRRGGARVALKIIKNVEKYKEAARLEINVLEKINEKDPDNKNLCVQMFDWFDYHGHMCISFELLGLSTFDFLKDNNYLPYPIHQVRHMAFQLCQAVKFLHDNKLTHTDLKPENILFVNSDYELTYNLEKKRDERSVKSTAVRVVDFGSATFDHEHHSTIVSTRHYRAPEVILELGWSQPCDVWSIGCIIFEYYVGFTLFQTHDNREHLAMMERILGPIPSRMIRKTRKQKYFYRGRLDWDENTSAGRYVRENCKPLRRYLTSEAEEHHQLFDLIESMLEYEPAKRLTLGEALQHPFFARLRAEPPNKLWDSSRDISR

[7] = target: Casein kinase I isoform alpha (Homo sapiens) (UniProt P48729); assay: Inhibition of recombinant human full-length GST-tagged CSNK1A1 at 2 uM using Ser/Thr 11 as substrate measured after 1 hr by Z'-LYTE assay relative to control
Chain of Casein kinase I isoform alpha (Homo sapiens) (P48729 2-337 limits assumed): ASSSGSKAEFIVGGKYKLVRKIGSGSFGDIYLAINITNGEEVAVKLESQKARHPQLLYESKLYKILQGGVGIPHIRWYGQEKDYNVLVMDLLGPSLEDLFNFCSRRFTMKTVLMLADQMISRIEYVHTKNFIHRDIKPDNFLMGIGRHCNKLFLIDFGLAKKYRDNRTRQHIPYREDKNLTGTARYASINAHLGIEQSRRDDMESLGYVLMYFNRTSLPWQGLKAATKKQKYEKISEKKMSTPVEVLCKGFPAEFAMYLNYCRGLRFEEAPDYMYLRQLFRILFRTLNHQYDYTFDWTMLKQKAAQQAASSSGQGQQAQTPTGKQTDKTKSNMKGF

[8] = target: Fibroblast growth factor receptor 4 (Homo sapiens) (UniProt P22455); assay: Inhibition of recombinant human His-tagged FGFR4 ([…] residues) expressed in insect cells at 2 uM using Tyr 04 as substrate measured after 1 hr by Z'-LYTE assay relative to control; details: Insect cell
[9] = target: Tyrosine-protein kinase Fyn (Homo sapiens) (UniProt P06241); assay: Inhibition of recombinant human full-length His-tagged FYN expressed in insect cells at 2 uM using Tyr 02 as substrate measured after 1 hr by Z'-LYTE assay relative to control; details: Insect cell
[10] = target: Vascular endothelial growth factor receptor 2 (Homo sapiens) (UniProt P35968); assay: Inhibition of recombinant human His-tagged KDR (789-1356 residues) expressed in insect cells at 2 uM using […] as substrate measured after 1 hr by Z'-LYTE assay relative to control; details: Insect cell
[11] = target: Tyrosine-protein kinase Lyn (Homo sapiens) (UniProt P07948); assay: Inhibition of recombinant human full length His-tagged LYN B expressed in baculovirus expression system at 2 uM using Tyr 02 as substrate measured after 1 hr by Z'-LYTE assay relative to control
Chain of Tyrosine-protein kinase Lyn (Homo sapiens) (P07948 2-512 limits assumed): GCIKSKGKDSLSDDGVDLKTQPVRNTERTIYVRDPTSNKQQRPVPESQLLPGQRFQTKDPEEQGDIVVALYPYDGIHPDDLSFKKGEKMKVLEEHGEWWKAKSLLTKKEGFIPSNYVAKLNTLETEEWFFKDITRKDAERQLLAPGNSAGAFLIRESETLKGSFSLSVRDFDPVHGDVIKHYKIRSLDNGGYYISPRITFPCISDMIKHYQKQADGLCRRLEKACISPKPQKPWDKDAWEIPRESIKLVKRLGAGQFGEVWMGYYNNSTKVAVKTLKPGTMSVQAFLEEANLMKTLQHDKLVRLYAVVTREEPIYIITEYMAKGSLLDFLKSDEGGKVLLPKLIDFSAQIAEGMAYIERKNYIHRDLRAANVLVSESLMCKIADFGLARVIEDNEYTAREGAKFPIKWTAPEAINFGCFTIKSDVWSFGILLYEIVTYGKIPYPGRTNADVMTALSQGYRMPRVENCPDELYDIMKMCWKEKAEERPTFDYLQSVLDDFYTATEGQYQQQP

[12] = target: Dual specificity mitogen-activated protein kinase kinase 2 (Homo sapiens) (UniProt P36507); assay: Inhibition of recombinant human full length His-tagged MAP2K2 expressed in baculovirus expression system at 2 uM using Ser/Thr 03 as substrate measured after 1 hr by Z'-LYTE assay relative to control
[13] = target: Dual specificity mitogen-activated protein kinase kinase 6 (Homo sapiens) (UniProt P52564); assay: Inhibition of recombinant human full length His-tagged MAP2K6 expressed in baculovirus expression system at 2 uM using Ser/Thr 03 as substrate measured after 1 hr by Z'-LYTE assay relative to control
[14] = target: Myosin light chain kinase 2, skeletal/cardiac muscle (Homo sapiens) (UniProt Q9H1R3); assay: Inhibition of recombinant human full length GST-tagged MYLK2 expressed in insect cells at 2 uM using Ser/Thr 13 as substrate measured after 1 hr by Z'-LYTE assay relative to control; details: Insect cell
[15] = target: Phosphorylase b kinase gamma catalytic chain, liver/testis isoform (Homo sapiens) (UniProt P15735); assay: Inhibition of recombinant human full length GST-tagged PHKG2 expressed in insect cells at 2 uM using Ser/Thr 07 as substrate measured after 1 hr by Z'-LYTE assay relative to control; details: Insect cell
Chain of Phosphorylase b kinase gamma catalytic chain, liver/testis isoform (Homo sapiens) (P15735 whole entry, canonical isoform): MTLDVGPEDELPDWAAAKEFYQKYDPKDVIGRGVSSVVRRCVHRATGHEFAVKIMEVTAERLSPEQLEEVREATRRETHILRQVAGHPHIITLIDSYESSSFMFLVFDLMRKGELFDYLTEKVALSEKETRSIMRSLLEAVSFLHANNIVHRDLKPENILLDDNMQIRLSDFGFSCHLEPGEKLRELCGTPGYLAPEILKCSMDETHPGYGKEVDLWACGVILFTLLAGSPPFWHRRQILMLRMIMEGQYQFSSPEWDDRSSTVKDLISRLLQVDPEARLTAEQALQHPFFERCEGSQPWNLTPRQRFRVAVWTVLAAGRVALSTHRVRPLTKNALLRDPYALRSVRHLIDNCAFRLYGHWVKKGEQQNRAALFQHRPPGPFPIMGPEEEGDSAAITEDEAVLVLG

[16] = target: Serine/threonine-protein kinase N1 (Homo sapiens) (UniProt Q16512); assay: Inhibition of recombinant human full length GST-tagged PKN1 expressed in insect cells at 2 uM using Ser/Thr 07 as substrate measured after 1 hr by Z'-LYTE assay relative to control; details: Insect cell
Chain of Serine/threonine-protein kinase N1 (Homo sapiens) (Q16512 2-942 limits assumed): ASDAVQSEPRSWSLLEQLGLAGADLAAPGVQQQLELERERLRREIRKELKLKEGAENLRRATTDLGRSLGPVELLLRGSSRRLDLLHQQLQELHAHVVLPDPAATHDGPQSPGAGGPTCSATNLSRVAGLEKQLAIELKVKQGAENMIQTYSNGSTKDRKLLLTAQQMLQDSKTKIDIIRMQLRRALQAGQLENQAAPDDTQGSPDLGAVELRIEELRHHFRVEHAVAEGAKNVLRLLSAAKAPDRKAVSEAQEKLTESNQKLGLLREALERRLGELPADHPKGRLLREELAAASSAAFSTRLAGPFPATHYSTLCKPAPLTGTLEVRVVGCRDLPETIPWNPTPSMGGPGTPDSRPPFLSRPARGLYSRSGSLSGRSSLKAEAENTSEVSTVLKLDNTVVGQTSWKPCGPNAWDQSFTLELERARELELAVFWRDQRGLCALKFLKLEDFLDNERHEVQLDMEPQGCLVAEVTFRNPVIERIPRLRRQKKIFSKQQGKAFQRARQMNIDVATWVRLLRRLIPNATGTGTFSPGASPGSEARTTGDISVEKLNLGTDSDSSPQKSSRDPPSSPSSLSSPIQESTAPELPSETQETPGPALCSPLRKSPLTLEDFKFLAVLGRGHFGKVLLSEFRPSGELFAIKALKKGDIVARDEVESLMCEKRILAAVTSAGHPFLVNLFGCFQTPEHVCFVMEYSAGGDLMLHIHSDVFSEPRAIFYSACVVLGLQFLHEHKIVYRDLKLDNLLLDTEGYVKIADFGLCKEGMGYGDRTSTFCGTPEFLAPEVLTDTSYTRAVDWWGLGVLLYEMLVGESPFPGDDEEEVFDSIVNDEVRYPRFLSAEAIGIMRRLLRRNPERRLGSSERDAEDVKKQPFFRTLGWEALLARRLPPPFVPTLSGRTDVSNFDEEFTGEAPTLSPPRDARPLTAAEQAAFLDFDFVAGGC

[17] = Inhibition of recombinant human GST-tagged ROCK1 (1-552 residues) expressed in insect cells at 2 uM using Ser/Thr 13 as substrate measured after 1 hr by Z'-LYTE assay relative to control; details: Insect cell, condition cancer
[18] = target: Proto-oncogene tyrosine-protein kinase Src (Homo sapiens) (UniProt P12931); assay: Inhibition of recombinant human full length His-tagged SRC expressed in insect cells at 2 uM using Tyr 02 as substrate measured after 1 hr by Z'-LYTE assay relative to control; details: Insect cell
[19] = target: SRSF protein kinase 3 (Homo sapiens) (UniProt Q9UPE1); assay: Inhibition of recombinant human full length GST-tagged STK23 expressed in baculovirus expression system at 2 uM using Ser/Thr 18 as substrate measured after 1 hr by Z'-LYTE assay relative to control
Chain of SRSF protein kinase 3 (Homo sapiens) (Q9UPE1 whole entry): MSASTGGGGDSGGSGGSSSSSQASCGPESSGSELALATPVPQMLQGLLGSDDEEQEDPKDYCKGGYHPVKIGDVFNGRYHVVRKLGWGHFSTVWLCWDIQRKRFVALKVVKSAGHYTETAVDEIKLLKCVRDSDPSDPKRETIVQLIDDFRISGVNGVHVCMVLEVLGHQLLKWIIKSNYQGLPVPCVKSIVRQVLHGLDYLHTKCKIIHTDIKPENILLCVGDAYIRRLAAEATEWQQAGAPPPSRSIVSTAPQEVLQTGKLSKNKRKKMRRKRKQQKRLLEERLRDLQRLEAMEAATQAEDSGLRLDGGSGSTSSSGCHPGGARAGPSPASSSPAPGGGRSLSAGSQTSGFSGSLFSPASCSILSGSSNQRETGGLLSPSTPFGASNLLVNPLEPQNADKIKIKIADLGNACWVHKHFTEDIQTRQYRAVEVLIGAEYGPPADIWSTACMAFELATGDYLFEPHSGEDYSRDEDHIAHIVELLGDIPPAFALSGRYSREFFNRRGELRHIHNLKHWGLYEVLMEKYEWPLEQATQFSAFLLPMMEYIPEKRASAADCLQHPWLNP

[20] = target: Serine/threonine-protein kinase 4 (Homo sapiens) (UniProt Q13043); assay: Inhibition of recombinant human full length GST-tagged STK4 expressed in insect cells at 2 uM using Ser/Thr 07 as substrate measured after 1 hr by Z'-LYTE assay relative to control; details: Insect cell
Chain of Serine/threonine-protein kinase 4 (Homo sapiens) (Q13043 whole entry): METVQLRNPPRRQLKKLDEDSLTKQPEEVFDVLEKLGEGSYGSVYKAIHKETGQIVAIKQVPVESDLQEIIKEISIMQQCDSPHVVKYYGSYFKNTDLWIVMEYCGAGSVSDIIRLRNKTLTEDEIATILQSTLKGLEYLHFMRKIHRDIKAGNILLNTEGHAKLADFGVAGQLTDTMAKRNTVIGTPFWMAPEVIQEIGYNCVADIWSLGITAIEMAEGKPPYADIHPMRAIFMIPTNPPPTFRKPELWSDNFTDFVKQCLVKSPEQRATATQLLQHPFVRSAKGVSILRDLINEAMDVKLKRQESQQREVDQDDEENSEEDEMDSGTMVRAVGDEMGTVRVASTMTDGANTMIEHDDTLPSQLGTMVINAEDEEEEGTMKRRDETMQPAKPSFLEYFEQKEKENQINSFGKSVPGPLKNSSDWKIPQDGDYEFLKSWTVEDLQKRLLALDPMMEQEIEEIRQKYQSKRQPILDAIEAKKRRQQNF

[21] = target: Tyrosine-protein kinase SYK (Homo sapiens) (UniProt P43405); assay: Inhibition of recombinant human full length GST-tagged SYK expressed in baculovirus expression system at 2 uM using […] as substrate measured after 1 hr by Z'-LYTE assay relative to control
NCI-H460 = assay: Antiproliferative activity against human NCI-H460 cells assessed as cell growth inhibition incubated for 24 hrs by MTS assay; assay type: functional, cell-based; details: NCI-H460, 24 h
U-87 MG = assay: Antitumor activity against human U-87MG cells assessed as reduction in lactate production at 1 micromol/L incubated for 24 hrs relative to control; assay type: functional, U-87MG ATCC; design: scale not given: the % may be the effect or the level left; details: dose 1 µmol/L, at 1 µM
PC3MM2 = assay: Antitumor activity against human PC3MM2 cells xenografted in female nude mouse model assessed as reduction in P-AKT at T308 level at 50 mg/kg, iv administered once a week and measured at least 8 hrs by immunoblot analysis; assay type: functional, organism-based
mTORC1 (Homo sapiens) = mTORC1 (Homo sapiens) (UniProt P42345+Q8N122+Q9BVC4); details: U-87 MG, dose 0.025-2 µmol/L, time 6.0 hrs

Compound: CNC(=O)Nc1ccc(-c2nc(N3CC4CCC(C3)O4)c3cnn(C4CCC5(CC4)OCCO5)c3n2)cc1
- IC50 [1]: 1.25 µM
- inhibition [2]: -3%
- inhibition [3]: 2%
- inhibition [4]: 0%
- inhibition [5]: 9%
- inhibition [6]: 0%
- inhibition [7]: 2%
- inhibition [8]: 4%
- inhibition [9]: 2%
- inhibition [10]: 7%
- inhibition [11]: 5%
- inhibition [12]: 2%
- inhibition [13]: 8%
- inhibition [14]: 8%
- inhibition [15]: 12%
- inhibition [16]: 14%
- inhibition at 2 µM [17]: 5%
- inhibition [18]: 3%
- inhibition [19]: 6%
- inhibition [20]: 12%
- inhibition [21]: 1%
- IC50 (NCI-H460): 0.3 µM
- Activity (U-87 MG): 48%
- Activity (PC3MM2): inactive
- inhibition (mTORC1 (Homo sapiens)): Active
